Measured values reported in patent publication US4413005A, “Carbamate derivatives and insecticidal, miticidal or nematocidal compositions containing the same” (priority 1981, dated 1983).
“Also recorded” adds a separate entry of the source.

Assays:
[1] = Acute oral toxicity in male mice, LD50 by Litchfield-Wilcoxon method (Test Example 5); conditions: mouse, in vivo, mortality on the seventh day
Protocol: Compounds of this invention were tested on male mice for acute toxicity by oral administration.

noxious insects = conditions: background statement, known; cited from earlier work
warm-blooded animals = conditions: background statement, known; cited from earlier work
[2] = system: green rice leafhopper (Nephotettix cincticeps); assay: Mortality of female adults of green rice leafhopper on paddy rice (Test Example 2); format: in vivo; conditions: 72 h
Protocol: An emulsion of specified concentration was prepared from a 50% wettable powder of the compound to be tested and applied to the leaves of paddy rice (one-month-old seedlings) planted in a pot to fully wet the leaves. After the emulsion had been dried, the pot was covered with a net cage, into which 10 female adults of green rice leafhopper (Nephotettix cincticeps) were released. The compound of each specified concentration was tested on two pots.

[3] = system: house fly (Musca domestica); assay: Local application to house fly, LD50 by Probit method (Test Example 4); format: in vivo; conditions: topical, 24 h
Protocol: The compound to be tested was dissolved in a predetermined amount of acetone. The solution was diluted to various concentrations and locally applied to house fly (Musca domestica).

[4] = system: tobacco cutworm (Spodoptera litura); assay: Mortality of third-instar larvae of tobacco cutworm on cabbage (Test Example 1); format: in vivo; conditions: 72 h
Protocol: Ten third-instar larvae of tobacco cutworm (Spodoptera litura) were placed on a cabbage (one-month-old seedling) planted in a pot, and a 50% emulsion of the compound to be tested was diluted to a specified concentration and applied to the leaves of the plant to fully wet them. The test compound of each specified concentration was tested on two pots.

Row | Compound | LD50 at 168 h [1] | insecticidal activity (noxious insects) | toxicity to warm-blooded animals (warm-blooded animals) | mortality at 200 ppm [2] | mortality at 400 ppm [2] | mortality at 800 ppm [2] | LD50 [3] | mortality at 500 ppm [4] | mortality at 1000 ppm [4] | mortality at 2000 ppm [4]
1 | CNC(=O)Oc1cccc2c1OC(C)(C)C2 [carbofuran, 2,3-dihydro-2,2-dimethylbenzofuran-7-yl N-methyl-carbamate] | 5.6 mg/kg | high insecticidal activity; also recorded: highest insecticidal activity heretofore known | high toxicity to warm-blooded animals |  |  |  |  |  |  | 
2 | CCOC(=O)CCN(SN(C)C(=O)Oc1cccc2c1OC(C)(C)C2)C(C)CC (stereo not drawn) [Example 29] | 120 mg/kg |  |  | 45% | 75% | 100% | 22.5 mg/kg | 60% | 80% | 100%
3 | CCOC(=O)CN(Cc1ccccc1)SN(C)C(=O)Oc1cccc2c1OC(C)(C)C2 [Example 19] | 108 mg/kg |  |  | 60% | 80% | 100% | 22.2 mg/kg | 65% | 85% | 100%
4 | CCOC(=O)CN(SN(C)C(=O)Oc1cccc2c1OC(C)(C)C2)C(=O)CC [Example 43, 2,3-dihydro-2,2-dimethylbenzofuran-7-yl N-(N-propionyl-N-ethoxycarbonylmethylaminosulfenyl)-N-methyl-carbamate] | 43 mg/kg |  |  | 60% | 85% | 100% | 14.4 mg/kg | 70% | 85% | 100%
5 | CCOC(=O)CN(CC(=O)OCC)SN(C)C(=O)Oc1cccc2c1OC(C)(C)C2 [Example 2, 2,3-dihydro-2,2-dimethylbenzofuran-7-yl N-[N,N-bis(ethoxycarbonylmethyl)aminosulfenyl]-N-methylcarbamate] | 140 mg/kg |  |  | 45% | 85% | 100% | 58.8 mg/kg | 60% | 70% | 100%
6 | CN(SN(CC#N)c1ccccc1)C(=O)Oc1cccc2c1OC(C)(C)C2 [Example 35] | 95 mg/kg |  |  | 60% | 75% | 95% | 65.6 mg/kg | 65% | 80% | 100%
7 | CCOC(=O)CN(SN(C)C(=O)Oc1cccc2c1OC(C)(C)C2)C(CC)C(=O)OCC (stereo not drawn) [Example 11] | 93 mg/kg |  |  | 55% | 80% | 95% | 93.9 mg/kg | 70% | 80% | 100%
